ChEMBL document CHEMBL1150368, “Detection of triplet repeat sequences in the double-stranded DNA using pyrene-functionalized pyrrole-imidazole polyamides with rigid linkers” (Bioorg Med Chem, 2008)

Assay: Binding affinity to biotinylated hairpin DNA by surface plasmon resonance assay

CC(=O)Nc1cn(C)c(C(=O)Nc2cc(C(=O)NCCC(=O)Nc3cn(C)c(C(=O)Nc4cc(C(=O)NCCCC(=O)Nc5cn(C)c(C(=O)Nc6cc(C(=O)NCCC(=O)Nc7cn(C)c(C(=O)Nc8cc(C(=O)NCCC(=O)NCCCN(C)C)n(C)c8)n7)n(CC#Cc7ccc8ccc9cccc%10ccc7c8c9%10)c6)n5)n(CC#Cc5ccc6ccc7cccc8ccc5c6c78)c4)n3)n(C)c2)n1
Kd: 837 nM
